Reference: patent publication US20250277059A1, “ANTIBODY USED TO TREAT CORONAVIRUS INFECTION” (priority 2022, published 2025)

Columns and labels:
[1] = test system: pseudo-typed virus having S protein of SARS COV_2 S VOC202012/01 (B.1.1.7: α variant); format: cell-based, SARS-COV-2
[2] = test system: pseudo-typed virus having S protein of SARS COV_2 S 501Y.V2 (B.1.351: β variant); format: cell-based, SARS-COV-2

Structure (SMILES): N=C(N)c1ccc2cc(OC(=O)c3ccc(N=C(N)N)cc3)ccc2c1 [Nafamostat, nafamostat]
- infection inhibiting effect on α variant-type virus [1]: exhibited infection inhibiting effects
- infection inhibiting effect on β variant-type virus [2]: exhibited infection inhibiting effects
